US4058601A, “Method for treating alcoholism” (Chugai Seiyaku Kabushiki Kaisha, priority 1974, dated 1977)
“And” between values parts separate entries of the source, which are not always exact repeats. Equal values may be shown once. “Also recorded” adds a separate entry of the source.

Experiments:
[1] = tested on: Neutral Lipid in Liver; assay: Inhibiting action for accumulation of neutral lipid in liver (ethanol-loaded rats); type: in vivo, Sprague Dawley strain male rats
Procedure: Inhibiting Action for Accumulation of Neutral Lipid in Liver
The Sprague Dawley strain male rats weighing 180±30 g which had been fed rat food commercially available as CLEA CE-2 and prevented from eating food for 16 hours just before the experiment was started were divided into groups of 10 rats each. Each rat was orally administered with disodium uridine-5'-diphosphate (UDP-2Na) as a suspension in corn oil in a dose of 100 mg/kg body weight. Thirty minutes after the administration, each rat was orally administered with ethanol as a 50% aqueous solution in a dose of 6 g/kg. body weight and, 24 hours after the administration, the liver was taken out and an amount of neutral lipid contained therein was determined by the Van Handel and Zilver-Smit method. For control, a glucose aqueous solution having a caloric content equivalent to the same amount of ethanol was used instead of ethanol.

[2] = tested on: rat (behaviour after ethanol); assay: Behaviour and righting reflex of rats, UDP-2Na given 30 min before ethanol (Example 2); type: in vivo, Sprague Dawley strain male rats; settings: UDP-2Na 100 mg/kg p.o. 30 min before ethanol 6 g/kg
Procedure: The Sprague Dawley strain male rats weighing 260±30 g which had been fed rat food commercially available as CLEA CE-2 and prevented from eating food for 12 hours just before the experiment were divided into groups each of 10 - 13 members each. Each rat was orally administered disodium uridine-5'-diphosphate (UDP-2Na) in the form of a suspension in corn oil in an amount 100 mg/kg body weight. Thirty minutes after the administration, ethanol as a 50% aqueous solution was orally administered in a dose of 6 g/kg. body weight and then behavior of the rat was observed over 24 hours.

[3] = tested on: rat (behaviour after ethanol); assay: Behaviour and righting reflex of rats, UDP-2Na given 30 min after ethanol (Example 3); type: in vivo, Sprague Dawley strain male rats; settings: UDP-2Na 100 mg/kg p.o. 30 min after ethanol 6 g/kg
Procedure: The Sprague Dawley strain male rats weighing 160±30 g which were fed rat food commercially available as CLEA CE-2 and prevented from eating food for 12 hours just before the experiment was started. Each rat was administered with ethanol as a 50% aqueous solution in a dose of 6 g/kg body weight. Thirty minutes after the administration, the rat was orally administered with a suspension of disodium uridine-5'-diphosphate (UDP-2Na) in corn oil in a dose of 100 mg/kg. body weight based on UDP-2Na. The behavior of the rat was observed over 24 hours after the last administration.

[4] = tested on: rat (behavior after ethanol); assay: Behavior of rats in the blood alcohol experiment (Example 4); type: in vivo, Sprague Dawley strain female rats; settings: UDP-2Na 100 mg/kg p.o. 30 min before ethanol 6 g/kg; ditto mark (") = normal walking
Procedure: (§1) In this Example, Sprague Dawley strain female rats (weighing 150±20 g) divided into groups of 9 - 12 members each were used.
(§2) After abstention from food overnight each rat was orally administered disodium uridine-5'-diphosphate (UDP-2Na) in the form of a physiological saline solution in a dose of 100 mg/kg. body weight as an effective ingredient and, 30 minutes after the administration, the rat was administered with ethanol in a dose of 6 g/kg body weight. Four hours and thirty minutes after the administration of ethanol, the rat was etherized, and blood was sampled from its heart to determine alcohol level in the blood by a alcoholic dehydrogenase method. For control, a physiological saline solution was used instead of the UDP-2Na solution.

[5] = Measurement of alcohol level in blood (alcoholic dehydrogenase method); type: in vivo, Sprague Dawley strain female rats
Procedure: Measurement of Alcohol Level in Blood
as §1, §2

SMILES: O=c1ccn([C@@H]2O[C@H](COP(=O)([O-])OP(=O)([O-])O)[C@@H](O)[C@H]2O)c(=O)[nH]1.[Na+].[Na+] [UDP . 2Na, disodium uridine-5'-diphosphate]
- % inhibition (neutral lipid accumulation in liver) ([1]; UDP-2Na 100 mg/kg p.o. 30 min before ethanol 6 g/kg p.o., 24 h): 95.7%
- Neutral Lipid in Liver ([1]; UDP-2Na 100 mg/kg p.o. in corn oil 30 min before ethanol 6 g/kg p.o., liver taken 24 h after): 12.69 ± 7.85 mg/g
- Behaviour: Deep Sleep ([2]; 3 hrs after alcohol): 1 heads
- Behaviour: Lying Flat ([2]; 3 hrs after alcohol): 5 heads
- Behaviour: Normal Walking ([2]; 3 hrs after alcohol): 7 heads
- Righting Reflex + ([2]; 3 hrs after alcohol): 12 heads
- Righting Reflex - ([2]; 3 hrs after alcohol): 1 heads
- Behaviour: Deep Sleep ([2]; 6 hrs after alcohol): 1 heads
- Behaviour: Lying Flat ([2]; 6 hrs after alcohol): 8 heads
- Behaviour: Normal Walking ([2]; 6 hrs after alcohol): 4 heads
- Righting Reflex + ([2]; 6 hrs after alcohol): 12 heads
- Righting Reflex - ([2]; 6 hrs after alcohol): 1 heads
- Behaviour: Deep Sleep ([2]; 9 hrs after alcohol): 0 heads
- Behaviour: Lying Flat ([2]; 9 hrs after alcohol): 7 heads
- Behaviour: Normal Walking ([2]; 9 hrs after alcohol): 6 heads
- Righting Reflex + ([2]; 9 hrs after alcohol): 13 heads
- Righting Reflex - ([2]; 9 hrs after alcohol): 0 heads
- Behaviour: Deep Sleep ([2]; 12 hrs after alcohol): 0 heads
- Behaviour: Lying Flat ([2]; 12 hrs after alcohol): 0 heads
- Behaviour: Normal Walking ([2]; 12 hrs after alcohol): 13 heads
- Righting Reflex + ([2]; 12 hrs after alcohol): 13 heads
- Righting Reflex - ([2]; 12 hrs after alcohol): 0 heads
- Behaviour: Deep Sleep ([2]; 18 hrs after alcohol): 0 heads
- Behaviour: Lying Flat ([2]; 18 hrs after alcohol): 0 heads
- Behaviour: Normal Walking ([2]; 18 hrs after alcohol): 13 heads
- Righting Reflex + ([2]; 18 hrs after alcohol): 13 heads
- Righting Reflex - ([2]; 18 hrs after alcohol): 0 heads
- Behaviour: Deep Sleep ([3]; 3 hrs after alcohol): 1 heads
- Behaviour: Lying Flat ([3]; 3 hrs after alcohol): 6 heads
- Behaviour: Normal Walking ([3]; 3 hrs after alcohol): 4 heads
- Righting Reflex + ([3]; 3 hrs after alcohol): 10 heads
- Righting Reflex - ([3]; 3 hrs after alcohol): 1 heads
- Behaviour: Deep Sleep ([3]; 6 hrs after alcohol): 1 heads
- Behaviour: Lying Flat ([3]; 6 hrs after alcohol): 7 heads
- Behaviour: Normal Walking ([3]; 6 hrs after alcohol): 3 heads
- Righting Reflex + ([3]; 6 hrs after alcohol): 9 heads
- Righting Reflex - ([3]; 6 hrs after alcohol): 2 heads
- Behaviour: Deep Sleep ([3]; 9 hrs after alcohol): 1 heads
- Behaviour: Lying Flat ([3]; 9 hrs after alcohol): 6 heads
- Behaviour: Normal Walking ([3]; 9 hrs after alcohol): 4 heads
- Righting Reflex + ([3]; 9 hrs after alcohol): 10 heads
- Righting Reflex - ([3]; 9 hrs after alcohol): 1 heads
- Behaviour: Deep Sleep ([3]; 12 hrs after alcohol): 0 heads
- Behaviour: Lying Flat ([3]; 12 hrs after alcohol): 1 heads
- Behaviour: Normal Walking ([3]; 12 hrs after alcohol): 10 heads
- Righting Reflex + ([3]; 12 hrs after alcohol): 11 heads
- Righting Reflex - ([3]; 12 hrs after alcohol): 0 heads
- Behaviour: Deep Sleep ([3]; 18 hrs after alcohol): 0 heads
- Behaviour: Lying Flat ([3]; 18 hrs after alcohol): 0 heads
- Behaviour: Normal Walking ([3]; 18 hrs after alcohol): 11 heads
- Righting Reflex + ([3]; 18 hrs after alcohol): 11 heads
- Righting Reflex - ([3]; 18 hrs after alcohol): 0 heads
- Behavior (individual test animals No. 1-12) [4]: normal walking; also recorded: lying flat; also recorded: deep sleep
- Ethanol level in Blood, Average ([5]; UDP-2Na 100 mg/kg p.o. in saline 30 min before ethanol 6 g/kg, 4 h 30 min after ethanol, *Confidence Limits: 98%): 1.51 ± 1.09 mg/mL
- Ethanol level in Blood (individual test animals No. 1-12) ([5]; UDP-2Na 100 mg/kg p.o. in saline 30 min before ethanol 6 g/kg, blood 4 h 30 min after ethanol): 2.11 mg/mL and 1.77 mg/mL and 0.57 mg/mL and 0.24 mg/mL and 0.75 mg/mL and 2.10 mg/mL and 1.08 mg/mL and 1.35 mg/mL and 1.72 mg/mL and 1.50 mg/mL and 2.16 mg/mL and 2.74 mg/mL
- alcohol level in blood in comparison with the control ([5]; UDP-2Na 100 mg/kg p.o., result in words): significantly lowered
